# Assay results reported in US20260021167A1, “COMPOSITIONS AND METHODS FOR TREATING OR PREVENTING NEURODEGENERATIVE DISEASES” (Delaware State University, priority 2022, published 2026).
# What was measured:
# [1] = test system: N27 dopaminergic cells; assay: Screening of SENP-1 inhibitors (LDH, MTT, ROS, Thioflavin-T) in PFF-induced PD model in vitro; type: cell-based, rat; conditions: N27 dopaminergic cells after exposure to PFF for 24 hrs
# Text: Cell Viability Assay. The MTT assay is a colorimetric assay that is based on the conversion of water-soluble MTT (3-(4,5-dimethylthiazol-2-yl)-2,5-diphenyltetrazolium bromide) into formazan crystal by mitochondrial dehydrogenase enzymes, soluble in 100% DMSO. The resulting solution is purple in color, and the color intensity is proportional to the viable cells for each well in a 96-well plate. A variety of SENP-1 inhibitors, such as SUMO-2 aldehyde, Momordin lc, streptonigrin, hinokiflavone, oleanolic acid and siRNA of SENP-1, were treated in N27 cells after PFF (1 μg/ml) exposure for 24 h. After adding 5 mM MTT dye to cells, the color intensity in MTT assays was measured using a spectrophotometer (SpectraMax M5e, Molecular devices, Dover, USA), at 570 nm with a reference wavelength of 630 nm. The cells were incubated with the MTT reagent (ab211091, Abcam) at 37° C. for 3 h, followed by solubilizing the formazan crystals in solution.
# Cytotoxicity Assay. The lactate dehydrogenase (LDH) is a cytosolic enzyme that is released into the media during cellular stress and increased levels of cytotoxicity. The cytotoxicity assay was measured using reagents from the Pierce LDH Cytotoxicity Assay Kit (88954, Thermo). For the assay, 50 μL of media from each well after PFF exposure, followed by SENP-1 treatment, was put into wells of a new 96-well plate. The LDH reagents were prepared according to the protocol provided, and 50 μL of the LDH reagent was mixed into each well. The total 100 μL of media containing LDH and its reagent were incubated at 37° C. for 30 min, followed by the application of a stop solution. The mixture was analyzed using a spectrophotometer (SpectraMax M5e, Molecular devices) at 490 nm with a reference wavelength of 680 nm.
# ROS Levels and Thioflavin-T Assessment. The reactive oxygen species (ROS) is a released byproduct during oxidative stress. On the other hand, thioflavin-T is an assay used to understand the level of protein aggregation that can be detrimental to cell survival. In order to assess the level of oxidative stress, all the SENP-1 inhibitors treated cells were incubated in media containing 5 μg/mL of the ROS reagent CellROX deep red reagent (C10422, Thermo Fisher Scientific) and 25 μg/mL of thioflavin-T reagent (CAS: 2390-54-7, Acros Organics) at 37° C. for 30 min. The cells were then washed 3 times with warm phosphate-buffered saline (PBS) without Ca^2+ or Mg^2+ (137 mM NaCl, 2.7 mM KCl, 4.3 mM Na2HPO4, and 1.47 mM KH2PO4), and several images from each well were collected using EVOS FL Cell Imaging Systems (Invitrogen, MA, USA). […] The intensity of red fluorescence corresponding to ROS levels and green labels corresponding to protein aggregation was analyzed by blinded raters using ImageJ. […]
# [2] = test system: protein aggregates; assay: Thioflavin-T protein aggregation in brain sections of PFF-injected mice; type: in vivo, mouse
# [3] = test system: SUMO-1; assay: Western blot of SUMO-1 level in PFF-exposed N27p cells; type: cell-based, rat; conditions: PFF exposure, compared with PFF only
# Text: A) The RNA interference suppressed the expression level of SENP-1, which enhanced SUMO-1 level. […] One-Way ANOVA, Dunnett's test was applied for statistical analysis in comparison with PFF only (#). *: p<0.05, **: p<0.01, p<0.001 and n.s.: not significant.
# [4] = test system: SUMO-1; assay: Western blot of SUMO-1 in brain tissue extracts of PFF-injected mice; type: in vivo, mouse; conditions: vs PFF only
# Protocol: A mouse model of Parkinson's disease is C57BL/6 male or female mice (50% each) injected with 5 μg of mouse PFF at 12 months old, followed by a treatment below for 6-7 weeks: • 1) without PFF injection, followed by vehicle (control, n=7); • 2) PFF injection, followed by vehicle (PFF only: control, n=8); • 3) PFF injection, followed by daily 10 mg/kg Momordin gavage (n=7-8); • 4) PFF injection, followed by daily 50 mg/kg Momordin gavage (n=7-8).
# Immunoblot Analyses. A total of three protein extractions were performed. In the first extraction, a gentle RIPA buffer containing the low concentration of detergent (25 mM Tris-HCL, 150 mM NaCl, 1% NP-40, 1% sodium deoxycholate and 0.1% SDS) was added with phosphatase inhibitors (100 μL for 10 mL) and 5 mM EDTA. The mixture was sonicated and centrifuged at 14,000 rpm for 10 min. The supernatant was collected for measuring the levels of phosphorylated α-syn, SENP-1 or SUMO-1 conjugated proteins for different groups. […] The primary antibodies pertaining to each protein analyzed were diluted at 1:1000 (p-Ser-129-α-synuclein, Cell signaling; SENP-1, SAB4501345, EMD) and incubated at 4° C. overnight. […] ImageJ was used to analyze specific bands on each blot and measured against the loading control (β-actin) for normalizing each band intensity.
# [5] = test system: N27 dopaminergic cell line; assay: In vitro cell death induced by MPP+ or PFF; type: cell-based, rat; conditions: MPP+ or PFF-mediated toxic conditions
# [6] = both 10 and 50 mg/kg oral, PFF-injected mice, vs PFF only
smiles,measurement,setting,value
CC1(C)CC[C@]2(C(=O)O)CC[C@]3(C)C(=CC[C@@H]4[C@@]5(C)CC[C@H](O[C@@H]6O[C@H](C(=O)O)[C@@H](O)[C@H](O[C@@H]7OC[C@@H](O)[C@H](O)[C@H]7O)[C@H]6O)C(C)(C)[C@@H]5CC[C@]43C)[C@@H]2C1 [Momordin lc],"efficacy in preventing protein aggregation-mediated damage and reversing PFF-induced damage (LDH, MTT, ROS, Thioflavin-T assays)",[1],clearly efficacious
same,level of alpha-synuclein accumulation/aggregation in Thioflavin-T staining in various brain regions,"[2]; PFF injection, mouse brains",reduced the level of alpha-synuclein accumulation/aggregation
same,level of protein aggregates (Thioflavin-T) in the SNc,[2]; [6],significantly reduced
same,level of protein aggregates (Thioflavin-T) in the striatum,[2]; [6],significantly reduced
same,level of SUMO-1 (Western blot),[3],increased level of SUMO-1
same,"level of SUMO-1 in the MB (Western blot, tissue extracts)",[4]; midbrain,enhanced level of SUMO-1
same,"level of SUMO-1 in the STR (Western blot, tissue extracts)",[4]; striatum,enhanced level of SUMO-1
same,protection against in vitro cell death,[5],protect against in vitro cell death
